Measured values from publication PMC7466261, “In Silico and In Vitro Analysis of Multifunctionality of Animal Food-Derived Peptides” (Foods, 2020).
Where two headings read alike, the source gives them in different places. Where a SMILES comes first, the peptide text is derived from it. Where no end group is shown, it is not given here.

Assays:
[1] = target: T1, angiotensin-converting enzyme (ACE) (Oryctolagus cuniculus, UniProt P12822); assay: ACE-inhibitory activity, fluorescence assay with Abz-Gly-Phe(NO2)-Pro; assay type: biochemical
T1 sequence (P12822 34-1310): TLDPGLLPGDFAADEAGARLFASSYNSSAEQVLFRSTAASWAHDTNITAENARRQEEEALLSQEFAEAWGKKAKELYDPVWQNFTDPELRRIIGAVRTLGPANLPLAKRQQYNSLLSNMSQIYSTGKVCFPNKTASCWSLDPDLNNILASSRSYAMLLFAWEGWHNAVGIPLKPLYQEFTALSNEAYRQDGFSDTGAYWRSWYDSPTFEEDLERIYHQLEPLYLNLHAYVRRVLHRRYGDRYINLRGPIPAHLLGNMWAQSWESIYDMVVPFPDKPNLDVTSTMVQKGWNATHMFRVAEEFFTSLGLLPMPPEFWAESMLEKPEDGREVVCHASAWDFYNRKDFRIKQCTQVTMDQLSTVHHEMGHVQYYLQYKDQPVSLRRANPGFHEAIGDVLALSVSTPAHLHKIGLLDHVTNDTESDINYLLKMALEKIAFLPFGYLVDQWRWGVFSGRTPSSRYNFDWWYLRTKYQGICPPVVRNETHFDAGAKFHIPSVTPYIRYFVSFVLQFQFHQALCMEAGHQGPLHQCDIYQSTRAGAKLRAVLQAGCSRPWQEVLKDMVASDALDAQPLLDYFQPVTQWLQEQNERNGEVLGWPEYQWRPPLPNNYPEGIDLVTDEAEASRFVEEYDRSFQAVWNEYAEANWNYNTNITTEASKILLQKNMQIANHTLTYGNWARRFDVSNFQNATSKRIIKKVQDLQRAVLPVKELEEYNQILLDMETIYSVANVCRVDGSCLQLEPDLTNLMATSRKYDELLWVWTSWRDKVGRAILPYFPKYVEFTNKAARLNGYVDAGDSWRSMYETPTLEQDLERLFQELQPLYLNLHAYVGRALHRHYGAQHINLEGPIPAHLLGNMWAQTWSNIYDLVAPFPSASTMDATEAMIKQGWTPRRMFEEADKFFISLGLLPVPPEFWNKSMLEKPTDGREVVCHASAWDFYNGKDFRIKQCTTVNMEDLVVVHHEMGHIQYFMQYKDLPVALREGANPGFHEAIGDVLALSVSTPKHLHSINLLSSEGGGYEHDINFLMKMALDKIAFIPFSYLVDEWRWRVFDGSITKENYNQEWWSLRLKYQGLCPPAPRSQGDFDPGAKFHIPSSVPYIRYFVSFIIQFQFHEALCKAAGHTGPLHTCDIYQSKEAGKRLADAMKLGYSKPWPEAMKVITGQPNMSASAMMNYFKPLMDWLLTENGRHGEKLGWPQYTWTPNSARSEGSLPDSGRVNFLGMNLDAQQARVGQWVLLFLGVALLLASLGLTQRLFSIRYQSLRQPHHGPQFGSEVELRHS
Description: ACE (1 U/mL) was diluted (0.04 U/mL) in 150 mM Tris buffer containing 0.1 μM ZnCl2 (pH 8.3). Forty microliters of sample (or MilliQ water for blank and control) were added to a black multi-well plate (Porvair, Leatherhead, UK). Then, 40 μL of ACE were added, and the reaction started after the addition of 160 μL of the substrate. The plate was incubated at 37 °C for 30 min, and the fluorescence was measured in a FLUOstar OPTIMA plate reader (BMG Labtechnologies GmbH, Offenburg, Germany) with 320 nm excitation and 420 nm emission filters.

[2] = Oxygen radical absorbance capacity (ORAC)-FL assay; conditions: mean ± SD
Description: An oxygen radical absorbance capacity (ORAC)-FL assay was used based on the protocol previously optimized. The reaction was performed at 37 °C in 75 mM phosphate buffer (pH 7.4). The final assay mixture volume was 200 µL, containing 70 nM FL, 12 mM AAPH, and antioxidant [(Trolox, 1–8 µM) or sample (at different concentrations)]. Fluorescence was measured during 137 min in a FLUOstar OPTIMA plate reader (BMG Labtech) with 485 nm excitation and 520 nm emission filters. The equipment was controlled by the FLUOstar Control ver. 1.32 R2 software for fluorescence measurement. Samples were analyzed in triplicate. The final ORAC-FL value was expressed as μmol Trolox equivalents (TE) per μmol peptide.

[3] = parameters: method as in doi:10.1007/s13594-015-0226-5; conditions: MBPDB; cited from earlier work
ABTS assay (TEAC) = conditions: mean ± SD
Description: Antioxidant activity was measured using a previously optimized method with some modifications. A mixture of 7 mM ABTS stock solution and 2.45 mM potassium persulfate was kept in the dark at room temperature for 12-16 h to form the ABTS radical cation (ABTS^•+). The ABTS^•+ solution was diluted in 5 mM of phosphate buffer solution (PBS) (pH 7.4) to an absorbance of 0.70 ± 0.02 at 734 nm at 30 °C. Two mL of diluted ABTS^•+ solution were mixed with 20 μL of sample or Trolox (0–0.015 μmol), and the absorbance was recorded at 734 nm after 10 min incubation at 30 °C. The Trolox equivalent antioxidant capacity (TEAC) value was expressed as μmol TE per μmol peptide. Each sample was analyzed in triplicate.

[4] = target: opioid, (3H)-naloxone binding; conditions: database value; read-out: Opioid agonist IC50, inhibition of (3H)-naloxone binding; cited from earlier work
murine splenocytes = test system: murine splenocytes; parameters: method as in doi:10.1016/j.idairyj.2010.02.013; conditions: MBPDB; cited from earlier work
mucin secretion = conditions: MBPDB; cited from earlier work
[5] = target: T1, angiotensin-converting enzyme (ACE); conditions: BIOPEP-UWM; read-out: ACE inhibitory IC50; cited from earlier work
[6] = parameters: method as in PMID 10908049; conditions: BIOPEP-UWM; cited from earlier work
macrophages RAW264.7 = conditions: RAW264.7 stimulated with 0.25 mM t-BOOH, pre-treated with 25 µM; stimulated cells alone 70.97%
Description: The human colorectal adenocarcinoma Caco-2 and the mouse macrophage RAW 264.7 cell lines were obtained from the American Type Culture Collection (ATCC, Rockville, MD, USA). Caco-2 and RAW264.7 cells were grown in High-Glucose DMEM supplemented with 10% (v:v) FBS, 1% (v:v) penicillin/streptomycin/amphotericin B, and 1% (v:v) non-essential amino acids solution. Cells were maintained in plastic 75-cm^2 culture flasks at 37 °C in a humidified incubator containing 5% CO2 and 95% air.
Cells were incubated for 24 h with various concentrations of selected synthetic peptides. To evaluate both the direct and protective effects against oxidative stress, the incubation period was followed by 1.5 h-treatment with culture medium or tert-butyl hydroperoxide (t-BOOH, 1 mM for Caco-2 cells and 0.25 mM for RAW264.7 cells), respectively, and different biomarkers were evaluated.
Cell viability was determined using the MTT assay. Caco-2 and RAW264.7 cells were seeded onto 96-well plates (Corning Costar Corp., Corning, NY, USA) at a density of 1.0 × 10^4 cells/cm^2 and incubated for 9 days and 24 h, respectively. […] The supernatant was aspirated, the formazan crystals were solubilized in DMSO:ethanol (1:1, v:v), and the absorbance was measured at 570 nm in a FLUOstar OPTIMA plate reader (BMG Labtech). Results were expressed as percentage of the control, considered as 100%. Samples were analyzed in triplicate.

Caco-2 cells = assay: Cell viability (MTT), direct effects, Caco-2; assay type: cell-based, human; conditions: Caco-2, 1–100 µM, 24 h
Description: (§1) Cell viability was determined using the MTT assay. […] Samples were analyzed in triplicate.

RAW264.7 cells = assay: Cell viability (MTT), direct effects, RAW264.7; assay type: cell-based, mouse; conditions: RAW264.7, 1–100 µM, 24 h
Description: as §1

[7] = target: dipeptidyl peptidase IV (DPP-IV); conditions: MBPDB; read-out: Antidiabetic IC50, DPP-IV inhibition; cited from earlier work
[8] = highest peptide concentration analyzed 1000 µM, read-out: ACE Inhibitory Activity (IC50-µM), symbol

CC(C)C[C@H](NC(=O)[C@H](CC(C)C)NC(=O)[C@@H](N)Cc1ccc(O)cc1)C(=O)O [YLL] (H-Tyr-Leu-Leu-OH; N-terminus and C-terminus assumed)
IC50 ([1]; mean ± SD, read-out: ACE Inhibitory Activity (IC50-µM)): 518.5 ± 3.5 µM
Antioxidant Activity ORAC [2]: 0.78 ± 0.03 µmol TE/µmol peptide
FRAP [3]: FRAP = 81.76 mmol Fe/mol peptide **
Antioxidant Activity TEAC (ABTS assay (TEAC)): 2.55 ± 0.29 µmol TE/µmol peptide

YLLF (UniProt P02754 118-121, looked up, fragment) [synthetic peptide, β-Lg f(102–105)]
Antioxidant Activity ORAC [2]: 0.91 ± 0.04 µmol TE/µmol peptide
IC50 [4]: 160 µM
Antioxidant Activity TEAC (ABTS assay (TEAC)): 1.96 ± 0.30 µmol TE/µmol peptide
Stimulation of murine splenocytes (listed as cytotoxic) (murine splenocytes): Stimulation of murine splenocytes **
Mucin secretion (opioid agonist) (mucin secretion): Stimulation of mucin secretion **
IC50 [5]: 172 µM

C[C@@H](O)[C@H](NC(=O)[C@H](Cc1c[nH]c2ccccc12)NC(=O)[C@@H]1CCCN1)C(=O)O [PWT] (H-Pro-Trp-Thr-OH; N-terminus and C-terminus assumed)
IC50 [1, 8]: > 1000 µM
Antioxidant Activity ORAC [2]: 2.15 ± 0.07 µmol TE/µmol peptide
Antioxidant Activity TEAC (ABTS assay (TEAC)): 0.73 ± 0.07 µmol TE/µmol peptide
Linoleic acid peroxidation (antioxidant) [6]: Inhibition of linoleic acid peroxidation *

C[C@@H](O)[C@H](NC(=O)[C@H](Cc1c[nH]c2ccccc12)NC(=O)[C@@H]1CCCN1C(=O)[C@@H](N)Cc1ccc(O)cc1)C(=O)O [YPWT] (H-YPWT-OH)
IC50 [1, 8]: > 1000 µM
Percentage of viable cells (% control) (macrophages RAW264.7): 79.58%
Cell viability, direct effect (Caco-2 cells): did not evoke changes in cell viability
Cell viability, direct effect (RAW264.7 cells): did not evoke changes in cell viability

YPFPGPIPN
IC50 [7]: 6.7 µM
Antioxidant Activity ORAC [2]: 1.26 ± 0.06 µmol TE/µmol peptide
Antioxidant Activity TEAC (ABTS assay (TEAC)): 1.22 ± 0.17 µmol TE/µmol peptide
